Among the data in patent US7511146B2, “2-substituted benzimidazole piperidines analogs as selective melanin concentrating hormone receptor antagonists for the treatment of obesity and related disorders” (Schering Corporation, priority 2003, dated 2009) are Ki values, retold here.

Where only a bound is given, the exact number is not on record here.

The target of the first experiment is T1, MCH receptor (Homo sapiens, UniProt Q99705).
T1 construct: expressed in transfected cells; host or cells: CHO cells
T1 sequence (Q99705 whole entry): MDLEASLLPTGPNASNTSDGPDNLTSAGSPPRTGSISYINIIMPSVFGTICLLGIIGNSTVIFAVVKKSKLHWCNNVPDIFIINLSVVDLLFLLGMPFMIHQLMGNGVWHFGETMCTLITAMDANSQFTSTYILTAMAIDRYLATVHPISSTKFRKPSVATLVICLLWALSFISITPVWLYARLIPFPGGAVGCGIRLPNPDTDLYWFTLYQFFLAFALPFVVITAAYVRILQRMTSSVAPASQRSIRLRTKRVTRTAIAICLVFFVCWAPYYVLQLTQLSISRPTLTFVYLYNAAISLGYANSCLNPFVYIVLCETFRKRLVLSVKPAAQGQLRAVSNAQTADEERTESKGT
As to the kind of experiment: MCH Receptor Binding Assay ([125I]-MCH, SPA, membranes from CHO cells expressing the MCH receptor). Particulars: [125I]-MCH displacement, CHO cell membranes; read-out: Class (Ki, MCH receptor binding). The protocol:
MCH Receptor Binding Assay:
Membranes from CHO cells expressing the MCH receptor were prepared by lysing cells with 5 mM HEPES for 15 min at 4C. Cell lysates were centrifuged ([…], 15 min) and the pellet was resuspended in 5 mM HEPES. For each 96-well plate (Microlite, Dynex Technologies), 1 mg of cell membranes were incubated with 10 mg of wheat germ agglutinin SPA beads (Amersham) for 5 min at 4 C in a volume of 10 ml of binding buffer (25 mM HEPES, 10 mM MGCl2, 10 mM NaCl, 5 mM MnCl2, 0.1% BSA). The membrane/bead mixture was centrifuged (1500×g, 3.5 min), the supernatant was aspirated, and the pellet was resuspended in 10 ml binding buffer. The centrifugation, aspiration and resuspension were then repeated. The membrane/bead mixture (100 μl) was then added to 96-well plates containing 50 μl of 500 pM [^125I]-MCH (NEN) and […] of the appropriate concentration of compound (4× the desired final concentration). Nonspecific binding was determined by including 1 μM MCH in the binding reaction. The binding reaction was incubated at room temperature for 2 h. Plates were then analyzed in a TOPCOUNT microplate scintillation counter (Packard). Data was analyzed and Ki values were determined using GraphPad Prism.
A word on the Ki: it is the equilibrium dissociation constant of an inhibitor or competing ligand from its target. As for `N#Cc1cccc(-c2ccc(C3(CNc4nc5cc(F)c(F)cc5[nH]4)CCNCC3)cc2)c1` [Compound 8A], the inhibitory constant (Ki) fell in the range of 20 to 50 nM.

Take `N#Cc1cccc(-c2ccc(C3(CNc4nc5cc(F)c(F)cc5[nH]4)CCN(CC4CC4)CC3)cc2)c1` [Compound 8B]: the Ki was in the range of 20 to 50 nM.

In the case of `N#Cc1cccc(-c2ccc(C3(CNc4nc5cc(F)c(F)cc5[nH]4)CCN(C4CCC4)CC3)cc2)c1` [Compound 8C], the Ki was 20 to 50 nM.

With `COC(=O)N1CCC(CNc2nc3cc(F)c(F)cc3[nH]2)(c2ccc(-c3cccc(C#N)c3)cc2)CC1` [Compound 8D], the inhibition constant (Ki) is above 100 nM.

On to `N#Cc1cccc(-c2ccc(C3(CCc4nc5cc(F)c(F)cc5[nH]4)CCN(CC4CC4)CC3)cc2)c1` [Compound 11A], for which the Ki is above 100 nM.

For the molecule `N#Cc1cccc(-c2ccc(C3(CCc4nc5cc(Cl)c(F)cc5[nH]4)CCNCC3)cc2)c1` [Compound 11B], the Ki is above 100 nM.

For the molecule `N#Cc1cccc(-c2ccc(C3(CCc4nc5cc(Cl)c(F)cc5[nH]4)CCN(CC4CC4)CC3)cc2)c1` [Compound 11C], the Ki is above 100 nM.

With `CC(C)(C)OC(=O)N1CCC(C(NCc2nc3cc(Cl)c(Cl)cc3[nH]2)c2ccc(-c3cccc(C#N)c3)cc2)CC1` (centres unmarked) [Compound 15A], the Ki is 50 to 100 nM.

Consider `CC(C)(C)OC(=O)N1CCC(C(NCc2nc3cc(F)c(Cl)cc3[nH]2)c2ccc(-c3cccc(C#N)c3)cc2)CC1` (centres unmarked) [Compound 15B], for which the Ki was 20 to 50 nM.

As for `N#Cc1cccc(-c2ccc(C(NCc3nc4cc(Cl)c(Cl)cc4[nH]3)C3CCNCC3)cc2)c1` (centres unmarked) [Compound 16A], the Ki was below 20 nM.

Turning to `N#Cc1cccc(-c2ccc(C(NCc3nc4cc(Cl)c(F)cc4[nH]3)C3CCNCC3)cc2)c1` (centres unmarked) [Compound 16B], the Ki is 20 to 50 nM.

For `N#Cc1cccc(-c2ccc(C(NCc3nc4cc(Cl)c(F)cc4[nH]3)C3CCN(CC4CC4)CC3)cc2)c1` (centres unmarked) [Compound 17A], the Ki is below 20 nM.

As for `N#Cc1cccc(-c2ccc(C(NCc3nc4cc(Cl)c(F)cc4[nH]3)C3CCN(C4CCCC4)CC3)cc2)c1` (centres unmarked) [Compound 17B], the Ki lay in the range of 20 to 50 nM.

Take `N#Cc1cccc(-c2ccc(C(CNc3nc4cc(Cl)c(Cl)cc4[nH]3)C3CCN(Cc4ccccc4)CC3)cc2)c1` (centres unmarked) [Compound 28A]: the Ki is below 20 nM.

For `N#Cc1cccc(-c2ccc(C(CNc3nc4cc(F)c(F)cc4[nH]3)C3CCN(Cc4ccccc4)CC3)cc2)c1` (centres unmarked) [Compound 28B], the Ki is below 20 nM.

As to `N#Cc1cccc(-c2ccc(C(OCc3nc4cc(F)c(Cl)cc4[nH]3)C3CCNCC3)cc2)c1` (centres unmarked) [Compound 33], the Ki fell in the range of 20 to 50 nM.

Regarding `N#Cc1cccc(-c2ccc(C(OCc3nc4cc(F)c(Cl)cc4[nH]3)C3CCN(CC4CC4)CC3)cc2)c1` (centres unmarked) [Compound 34A], the Ki is 20 to 50 nM.

In the case of `N#Cc1cccc(-c2ccc(C(OCc3nc4cc(F)c(Cl)cc4[nH]3)C3CCN(Cc4ccccc4)CC3)cc2)c1` (centres unmarked) [Compound 34B], the inhibition constant Ki was 20 to 50 nM.

In the case of `N#Cc1cccc(-c2ccc(C(OCc3nc4cc(F)c(Cl)cc4[nH]3)C3CCN(C4CCCC4)CC3)cc2)c1` (centres unmarked) [Compound 34C], the Ki was 20 to 50 nM.

On to `N#Cc1cccc(-c2ccc(C(OCc3nc4cc(F)c(Cl)cc4[nH]3)C3CCN(CCCCCO)CC3)cc2)c1` (centres unmarked) [Compound 34D], for which the Ki is above 100 nM.

In the case of `CS(=O)(=O)N1CCC(C(OCc2nc3cc(Cl)c(Cl)cc3[nH]2)c2ccc(-c3cccc(C#N)c3)cc2)CC1` (centres unmarked) [Compound 39], the Ki was above 100 nM.

`CC(=O)N1CCC(C(OCc2nc3cc(Cl)c(Cl)cc3[nH]2)c2ccc(-c3cccc(C#N)c3)cc2)CC1` (centres unmarked) [Compound 44]: the Ki is above 100 nM.

`N#Cc1cccc(-c2ccc(C(CSc3nc4cc(F)c(Cl)cc4[nH]3)C3CCNCC3)cc2)c1` (centres unmarked) [Compound 48]: the Ki was above 100 nM.

With `CC(C)(C)OC(=O)N1CCC(COc2nc3cc(Cl)c(Cl)cc3[nH]2)(c2ccc(-c3cccc(C#N)c3)cc2)CC1` [Compound 53, 4-(3′-cyano-biphenyl-4-yl)-4-(5,6-dichloro-1H-benzoimidazol-2-yloxymethyl)-piperidine-1-carboxylic acid tert-butyl ester], the Ki was above 100 nM.

Regarding `N#Cc1cccc(-c2ccc(C3(COc4nc5cc(Cl)c(Cl)cc5[nH]4)CCNCC3)cc2)c1` [Compound 54, 4′-[4-(5,6-Dichloro-1H-benzoimidazol-2-yloxymethyl)-piperidin-4-yl]-biphenyl-3-carbonitrile], the Ki lay in the range of 50 to 100 nM.

As for `CS(=O)(=O)N1CCC(COc2nc3cc(Cl)c(Cl)cc3[nH]2)(c2ccc(-c3cccc(C#N)c3)cc2)CC1` [Compound 56, 4′-[4-(5,6-Dichloro-1H-benzoimidazol-2-yloxymethyl)-1-methanesulfonyl-piperidin-4-yl]-biphenyl-3-carbonitrile], the Ki was above 100 nM.

For `N#Cc1cccc(-c2ccc(C3(COc4nc5cc(Cl)c(Cl)cc5[nH]4)CCN(CC4CC4)CC3)cc2)c1` [Compound 57, 4′-[1-Cyclopropylmethyl-4-(5,6-dichloro-1H-benzoimidazol-2-yloxymethyl)-piperidin-4-yl]-biphenyl-3-carbonitrile], the Ki lay in the range of 50 to 100 nM.

Turning to `CCNC(=O)N1CCC(COc2nc3cc(Cl)c(Cl)cc3[nH]2)(c2ccc(-c3cccc(C#N)c3)cc2)CC1` [Compound 58, 4-(3′-Cyano-biphenyl-4-yl)-4-(5,6-dichloro-1H-benzoimidazol-2-yloxymethyl)-piperidine-1-carboxylic acid ethylamide], the Ki is above 100 nM.

Consider `CC(C)(C)OC(=O)N1CCC(OCc2nc3cc(F)c(F)cc3[nH]2)(c2ccc(-c3cccc(C#N)c3)cc2)CC1` [Compound 63, 4-(3′-Cyano-biphenyl-4-yl)-4-(5,6-difluoro-1H-benzoimidazol-2-ylmethoxy)-piperidine-1-carboxylic acid tert-butyl ester], for which the Ki is above 100 nM.

For `N#Cc1cccc(-c2ccc(C3(NCc4nc5cc(Cl)c(Cl)cc5[nH]4)CCN(C4CCCC4)CC3)cc2)c1` [Compound 67A, 4′-{1-Cyclopentyl-4-[(5,6-dichloro-1H-benzoimidazol-2-ylmethyl)-amino]-piperidin-4-yl}-biphenyl-3-carbonitrile], the Ki is above 100 nM.

Take `N#Cc1cccc(-c2ccc(C3(NCc4nc5ccccc5[nH]4)CCN(C4CCCC4)CC3)cc2)c1` [Compound 67B]: the inhibition constant (Ki) was above 100 nM.

Regarding `N#Cc1cccc(-c2ccc(C(CCc3nc4cc(Cl)c(Cl)cc4[nH]3)C3CCN(Cc4ccccc4)CC3)cc2)c1` (centres unmarked) [Compound 75A], the Ki fell in the range of 50 to 100 nM.

For the molecule `N#Cc1cccc(-c2ccc(C(CCc3nc4cc(Cl)c(F)cc4[nH]3)C3CCN(Cc4ccccc4)CC3)cc2)c1` (centres unmarked) [Compound 75B], the Ki lay in the range of 20 to 50 nM.

Regarding `N#Cc1cccc(-c2ccc(C(CCc3nc4c(Cl)cc(Cl)cc4[nH]3)C3CCN(Cc4ccccc4)CC3)cc2)c1` (centres unmarked) [Compound 75C], the Ki is 20 to 50 nM.

The same experiment, now with this note: [125I]-MCH displacement, CHO cell membranes; read-out: Ki value.
Consider `N#Cc1cccc(-c2ccc(C(CNc3nc4cc(Cl)c(Cl)cc4[nH]3)C3CCN(Cc4ccccc4)CC3)cc2)c1` (centres unmarked) [Compound 28A], for which the Ki worked out at 3 nM.
